Data taken from US8518953B2, “Aminopyrimidines useful as inhibitors of protein kinases” (Vertex Pharmaceuticals Incorporated, priority 2007, dated 2013).
pIC50: −log10 of the molar value.

Biological target: T1, GSK3β TYR 216 (Homo sapiens, UniProt P49841)
T1 construct: western blotting of Jurkat cells dosed with the compounds; endogenous in cells; host or cells: Jurkat cells
Experiment: GSK3β p-TYR Inhibition Assay (western blotting of Jurkat cells)
Format: cell-based
Settings: western blot, read-out: GSK3b pTYR 216: IC50
Procedure: Compounds are screened for their ability to inhibit the phosphorylation of tyrosine (TYR) residues through the use of western blotting of Jurkat cells dosed with the compounds. The phosphorylation of the specific TYR residues tested are GSK3α TYR 279 and GSK3β TYR 216.
Jurkat cells are seeded at a density of 2×10^5 cells/well in a 12 well dish in starvation media (RPMI+1% FBS+P/S). Following starvation for 16 hours, the compound is dosed into each well at a final DMSO concentration of 0.3% and cells are incubated o/n at 37° C. 5% CO2. The next day, cells are spun down at 1500 rpm, washed with PBS, and lysed in 100 uL Laemli sample buffer with β-mercaptoethanol.
15 microliters (uL) of cell lysates are loaded onto a 10% tris-glycine gel and run at 120 v for 2 hours or until dye front runs off of the gel. The protein is then transferred onto a PVDF membrane at 100 v for 60 min. PBST (PBS containing 0.1% Tween 20, such as 1 ml Tween per 1 L of PBS) is then made up and used for all washes and antibody incubations. The blot is blocked in 5% nonfat milk PBST for one hour.
The primary antibody (GSK-3α/β pTYR 279/216 at 1:1000 dilution Upstate cat#05-413) is then added in […] PBST overnight at 4° C. with gentle rocking. The blot is then washed in PBST for 5 min. This is then repeated 4 times. […]

T1 sequence (P49841 whole entry): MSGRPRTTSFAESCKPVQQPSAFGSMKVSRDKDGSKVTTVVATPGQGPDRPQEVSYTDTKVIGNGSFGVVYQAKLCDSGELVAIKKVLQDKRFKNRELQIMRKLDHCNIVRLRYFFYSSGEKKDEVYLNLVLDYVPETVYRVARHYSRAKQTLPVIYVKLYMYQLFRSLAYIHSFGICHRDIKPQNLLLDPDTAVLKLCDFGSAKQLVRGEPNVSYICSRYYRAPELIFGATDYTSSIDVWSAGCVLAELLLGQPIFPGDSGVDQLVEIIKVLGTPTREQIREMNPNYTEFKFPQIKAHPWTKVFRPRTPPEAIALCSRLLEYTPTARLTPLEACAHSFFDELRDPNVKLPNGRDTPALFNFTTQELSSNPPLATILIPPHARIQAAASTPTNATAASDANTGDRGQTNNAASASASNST

Work on `Cc1nc(-c2ccccc2Cl)nc(Nc2n[nH]c3ncc(F)cc23)c1C` [Compound I-1, N-(2-(2-chlorophenyl)-5,6-dimethylpyrimidin-4-yl)-5-fluoro-1H-pyrazolo[3,4-b]pyridin-3-amine] yielded a pIC50 of 8.52.
